Here are results for four molecules from patent publication US20230233489A1 (priority 2020, published 2023).

Values joined by “and” are separate entries in the source; they are usually repeats but may differ in a detail not shown here. Equal entries are not always repeated. Where two headings read alike, the source gives them in different places.

Series [1] relates to RAC1. Conditions: IBD patients; cited from earlier work.
The test system of series [2] is SARS-CoV-2. Conditions: human, in vivo.
For series [3], the system named is SARS-CoV-2. Conditions: human, in vivo. This is another data set of the same source.
For series [4] the following is noted: in vivo; cited from earlier work.
The test system of series [5] is MERS-CoV. Particulars: read-out: 50% effective concentration [EC50]; cited from earlier work.
The subject of series [6] is Ebola virus. Particulars: mouse, in vivo; cited from earlier work.
For series [7], the system named is SARS-CoV-1. Conditions: cited from earlier work.
The test system of series [8] is SARS-CoV-2. Particulars: cited from earlier work.
The test system of series [9] is Ebola virus. Conditions: read-out: 50% inhibitive concentration [IC50]; cited from earlier work.
For series [10] the following is noted: cited from earlier work.

Turning to `S=c1nc[nH]c2nc[nH]c12` [Mercaptopurine, mercaptopurine], the RAC1 expression result in [1] is reported as “lower RAC1 expression”.
Regarding `COc1ccccc1OCCNCC(O)COc1cccc2[nH]c3ccccc3c12` (centres unmarked) [carvedilol], in [2], the “odds ratio of a positive laboratory test result for SARS-CoV-2” value is 0.74 and 0.90 and 0.73.
Regarding `COc1ccc2[nH]cc(CCNC(C)=O)c2c1` [melatonin], in series [3], the “odds ratio of a positive laboratory test result for SARS-CoV-2” value is 0.36 and 0.35 and 0.56 and 0.46. Further, in [2], the “odds ratio of SARS-CoV-2 positive test” value is 0.52 and 0.61 and 0.80.
`CN(C)CCOc1ccc(/C(=C(/CCCl)c2ccccc2)c2ccccc2)cc1` [toremifene]: the bioavailability result in series [4] is “good”. The EC50 in series [5] was 12.9 µM; in [7] it was 12 µM. Also, the survival rate result in series [6] is on record as “significantly improved survival rate”. Moreover, the figures for the IC50 in series [8] and in [9] were 3.58 µM and about 1 µM, respectively. Further, in series [10], the “bound to plasma protein” value was 99%.
